From US20060035983A1, “Methods for treating fungal infections” (priority 2002, published 2006)
Converted amounts (≈) assume the structure as drawn.

Columns and labels:
[1] = critical micelle content; no method given; cited from earlier work
[2] = tested on: Trichophyton rubrum; assay: Antifungal susceptibility testing (NCCLS M27-A), Trichophyton rubrum cultures in vitro; format: cell-based; settings: for MIC80 / MIC100: 7 days at 30° C.; for MIC100: lowest concentration that inhibited 100% of fungal growth; for MFC: lowest concentration that killed at least 97% of the original inoculum; for fungicidal effect: result in words
Method: Suspensions were then treated with various polyoxyethylene alkyl ethers at a range of concentrations, and incubated for 7 days at 30° C. […] Minimum fungicidal concentrations (MFCs) were determined as the lowest concentration of compound that killed at least 97% of the original inoculum, as compared with the verified inoculum count.

[3] = tested on: Candida Parapsilosis; assay: Additional fungal species susceptibility testing, Candida parapsilosis; format: cell-based
Method: (§1) A number of polyoxyethylene alkyl ethers were tested for fungicidal activity against Trichophyton rubrum cultures in vitro according to standard methods (see, Approved Standard M27-A, National Commitee for […] Laboratory Standards, 1997). Briefly, inocula from Trichophyton rubrum were harvested from agar cultures, suspended in 0.85% saline, and diluted to a verified final concentration of […] colony-forming units (CFU) per ml. Suspensions were then treated with various polyoxyethylene alkyl ethers at a range of concentrations, and incubated for 7 days at 30° C. Minimum inhibitory concentrations (MICs) were determined as the lowest concentration of compound that inhibited 100% of fungal growth, as compared with a polyoxyethylene alkyl ether-free control suspension. Minimum fungicidal concentrations (MFCs) were determined as the lowest concentration of compound that killed at least 97% of the original inoculum, as compared with the verified inoculum count. Trichophyton rubrum is the causative organism in 68-100% of patients in onychomycosis trials (Crawford et al. (2002) Archives Dermatol. 138:811-816). Trichophyton Mentagrophytes is the causative organism in most of the rest. Although yeast and other nondermatophytes can cause onychomycosis, the incidence is small. Additional fungal species were tested for susceptibility to treatment with Laureth-4 as described in Example 1.

[4] = tested on: Aspergillus flavus; assay: Additional fungal species susceptibility testing, Aspergillus flavus; format: cell-based
Method: as §1

[5] = tested on: Fusarium solani; assay: Additional fungal species susceptibility testing, Fusarium solani; format: cell-based
Method: as §1

[6] = tested on: Trichophyton mentagrophytes; assay: Additional fungal species susceptibility testing, Trichophyton mentagrophytes; format: cell-based
Method: as §1

[7] = tested on: Scopulariopsis brevicaulis; assay: Additional fungal species susceptibility testing, Scopulariopsis brevicaulis; format: cell-based
Method: as §1

[8] = tested on: Candida Albicans; assay: Additional fungal species susceptibility testing, Candida albicans; format: cell-based
Method: as §1

Molecule	CMC [1] [mM]	MIC80 [2] [µg/mL]	MIC100 [2] [µg/mL]	MFC [2] [µg/mL]	further results
CCCCCCCCO[C@@H]1O[C@H](CO)[C@@H](O)[C@H](O)[C@H]1O [n-octyl-β-D-glucopyranoside]	20 to 25	31.25 (≈ 107 µM)	1000 (≈ 3420 µM)	–	–
Polyoxyethylene 2 stearyl ether [BRIJ 72]	–	0.98	0.98	3.9	–
Polyoxyethylene 2 cetyl ether [BRIJ 52]	–	0.98	3.9	7.8	–
Polyoxyethylene 2 oleyl ether [BRIJ 93]	–	250	250	1000	fungicidal effect [2]: loss of the effect
Polyoxyethylene 4 lauryl ether [BRIJ 30]	–	0.98	1.95	1.95	MFC [3]: >5000 µg/mL; MIC80 [3]: 15.5 µg/mL; MIC100 [3]: >5000 µg/mL; MFC [4]: >5000 µg/mL; MIC80 [4]: 39 µg/mL; MIC100 [4]: >5000 µg/mL; MFC [5]: >5000 µg/mL; MIC80 [5]: 78 µg/mL; MIC100 [5]: >5000 µg/mL; MFC [6]: 625 µg/mL; MIC80 [6]: 5 µg/mL; MIC100 [6]: 625 µg/mL; MFC [7]: >5000 µg/mL; MIC80 [7]: 78 µg/mL; MIC100 [7]: >5000 µg/mL; MFC [8]: >5000 µg/mL; MIC80 [8]: >5000 µg/mL; MIC100 [8]: >5000 µg/mL
Polyoxyethylene 23 lauryl ether [BRIJ 35]	0.09	0.49	0.98	1.95	–
Polyoxyethylenesorbitan monopalmitate [Tween 60]	0.059	250	500	1000	–
Polyethylene glycol tert-octylphenyl ether [Triton X-100]	0.2 to 0.9	31.25	1000	–	–
Polyoxyethylene 20 cetyl/stearyl ether [BRIJ 68]	–	1.95	3.9	15.6	–
CCCCCCCCS[C@@H]1O[C@H](CO)[C@@H](O)[C@H](O)[C@H]1O [n-octyl-β-D-thioglucopyranoside]	9	500 (≈ 1620 µM)	1000 (≈ 3240 µM)	–	–
Polyoxyethylene 20 oleyl ether [BRIJ 98]	–	250	500	1000	fungicidal effect [2]: loss of the effect
Polyoxyethylenesorbitan monooleate [Tween 80]	0.059	250	1000	1000	–
Polyoxyethylene 20 stearyl ether [BRIJ 78]	–	0.98	1.95	3.9	–
C[C@H](CCC(=O)NCCC[N+](C)(C)CCCS(=O)(=O)[O-])[C@H]1CC[C@H]2[C@@H]3[C@H](O)C[C@@H]4C[C@H](O)CC[C@]4(C)[C@H]3C[C@H](O)[C@]12C [CHAPS]	6 to 10	500 (≈ 813 µM)	1000 (≈ 1630 µM)	–	–
Polyoxyethylenesorbitan monolaurate [Tween 20]	0.059	125	500	1000	–
Polyoxyethylene 20 cetyl ether [BRIJ 58]	–	0.49	0.98	1.95	–
